Patent US10836763B2, “5 to 7 membered heterocyclic amides as JAK inhibitors” (priority 2018, dated 2020)
Read-outs that look alike come from different tables or passages of the source.

Assays:
[1] = tested on: IL-12 stimulated STAT4 phosphorylation in CD3+ T cells; experiment: Cellular JAK potency assay: inhibition of IL-12-induced pSTAT4; assay type: cell-based; details: Homo sapiens, T-cell, 0.5 h, read-out: pIC50, inhibition of IL-12-induced pSTAT4 (converted)
Procedure: Assay 16: Cellular JAK Potency Assay: Inhibition of IL-12-Induced pSTAT4
The potency of test compounds for inhibition of interleukin-12 (IL-12) stimulated STAT4 phosphorylation was measured in CD3-positive (CD3+) T cells derived from human whole blood (Stanford Blood Center) using flow cytometry. Because IL-12 signals through JAK, this assay provides a measure of JAK cellular potency.
CD3+ T cells were identified using a phycoerythrin (PE) conjugated anti-CD3 antibody (clone UCHT1, BD Biosciences), and an Alexa Fluor 647 conjugated anti-pSTAT4 antibody (clone 38/p-Stat4, BD Biosciences) was used to detect STAT4 phosphorylation.
Human peripheral blood mononuclear cells (PBMC) were isolated from human whole blood of healthy donors using a ficoll gradient. […] After incubation, cells were washed twice in FACS buffer before being analyzed using a MACSQuant flow cytometer (Miltenyi). To determine the inhibitory potency of the test compound, the median fluorescent intensity (MFI) of pSTAT4 was measured in CD3+ T cells. IC50 values were determined from analysis of the inhibition curves of MFI vs compound concentration. Data are expressed as pIC50 (negative decadic logarithm IC50) values.

[2] = tested on: GM-CSF stimulated STAT5 phosphorylation in CD14+ monocytes; experiment: Cellular JAK potency assay: inhibition of GM-CSF-induced pSTAT5; assay type: cell-based; details: Homo sapiens, Monocyte, 0.25 h, read-out: pIC50, inhibition of GM-CSF-induced pSTAT5 (converted)
Procedure: Assay 15: Cellular JAK Potency Assay: Inhibition of GM-CSF-Induced pSTAT5
The potency of test compounds for inhibition of granulocyte-macrophage colony-stimulating factor (GM-CSF) stimulated STAT5 phosphorylation was measured in CD14-positive (CD14+) monocytes derived from human whole blood (Stanford Blood Center) using flow cytometry. Because GM-CSF signals through JAK, this assay provides a measure of JAK cellular potency.
Monocytes were identified using a fluorescein isothiocyanate (FITC) conjugated anti-CD14 antibody (Clone RM052, Beckman Coulter), and an Alexa Fluor 647 conjugated anti-pSTAT5 antibody (pY694, BD Biosciences) was used to detect STAT5 phosphorylation.
Human peripheral blood mononuclear cells (PBMC) were isolated from human whole blood of healthy donors using a ficoll gradient. […] Cells were washed twice with FACS buffer, and then re-suspended in 1:10 […] Alexa Fluor 647:FACS buffer (100 μL) for 30 min at RT in the dark, washed twice in FACS buffer, and analyzed using a MACSQuant flow cytometer (Miltenyi).
To determine the inhibitory potency of the test compound, the median fluorescent intensity (MFI) of pSTAT5 was measured in CD14+ monocytes. IC50 values were determined from analysis of the inhibition curves of MFI vs compound concentration. Data are expressed as pIC50 (negative decadic logarithm IC50) values.

| Structure (SMILES) | IC50 [1] [nM] | IC50 [2] [nM] | IC50 ([1]; CD3+ T cells, IL-12 10 ng/mL, 30 min, flow cytometry) [nM] | IC50 ([2]; CD14+ monocytes, GM-CSF 0.3 ng/mL, 15 min, flow cytometry) [nM] |
| --- | --- | --- | --- | --- |
| CCc1cc(O)ccc1-c1ccc2c(-c3nc4c([nH]3)CN(C(C)C)[C@H](C(=O)N3CCCN(C)CC3)C4)n[nH]c2c1 [Compound 4, (S)-(2-(6-(2-ethyl-4-hydroxyphenyl)-1H-indazol-3-yl)-5-isopropyl-4,5,6,7-tetrahydro-3H-imidazo[4,5-c]pyridin-6-yl)(4-methyl-1,4-diazepan-1-yl)methanone] | 1000 | 200 |  |  |
| CCCN1Cc2[nH]c(-c3n[nH]c4cc(-c5ccc(O)cc5CC)ccc34)nc2C[C@H]1C(=O)N1CCN(CCO)CC1 [Compound 1, (S)-(2-(6-(2-ethyl-4-hydroxyphenyl)-1H-indazol-3-yl)-5-propyl-4,5,6,7-tetrahydro-3H-imidazo[4,5-c]pyridin-6-yl)(4-(2-hydroxyethyl)piperazin-1-yl)methanone] |  |  | 631 | 200 |
